A word on the IC50: it is the concentration that inhibits the measured activity by half. A low value points to greater potency in that assay.

This assay deals with NCI-H295R. In words: IC50 (antiproliferative, ATP content). The note with it: 48 h. The gist of the method: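 Serum-free ITS-supplemented DMEM was used to seed 1500 adrenocortical carcinoma cells per well in 1536-well plates, which were cultured overnight. Eight final concentrations of each library compound, from 0.6 nM to 46 µM, were added by pin transfer, followed by 48 h at 37 °C in 5% CO2 and a CellTiter-Glo ATP read after 20 min at room temperature. Luminescence was set against vehicle and positive-control wells, and the IC50 was obtained by logistic curve fitting. Any compound with no concentration response was entered as above the top dose.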
`CC(=O)N/N=C/c1ccc([N+](=O)[O-])o1`: the IC50 was greater than 46 µM.
Compound `CC1CS(=O)(=O)CCN1/N=C/c1ccc([N+](=O)[O-])o1` (configuration not stated) showed a concentration for half-maximal inhibition (IC50) greater than 46 µM.
In turn, `N=C(N)NCC1COC2(CCCCC2)O1.N=C(N)NCC1COC2(CCCCC2)O1.O=S(=O)(O)O` (configuration not stated) showed a half-inhibitory concentration (IC50) greater than 46 µM.
The value for `Cl.O=C(c2cn(C)c1ccccc12)[C@H]3CC=4N\C=N/C=4CC3` was greater than 46 µM.
The value for `CCCCOc1ccc(OCCCN2CCOCC2)cc1.Cl` was greater than 46 µM; that for `CC(C)(C)NC[C@H](O)COc1ccccc1C1CCCC1.CC(C)(C)NC[C@H](O)COc1ccccc1C1CCCC1.O=S(=O)(O)O` was greater than 46 µM; that for `C[C@H](N)[C@H](O)c1cccc(O)c1.O=C(O)[C@@H](O)[C@@H](O)C(=O)O` was greater than 46 µM.
The value for `C=C1[C@H](CO)[C@@H](O)C[C@@H]1n1cnc2c(=O)[nH]c(N)nc21` was greater than 46 µM.
In turn, `CCC(=O)OCC(=O)[C@@]1(OC(=O)CC)[C@H](C)C[C@H]2[C@H]3[C@H]([C@@H](O)C[C@@]21C)[C@@]1(C)C=CC(=O)C=C1C[C@H]3Cl` came in with an IC50 greater than 46 µM.
For `NCC1CCC(C(=O)O)CC1` (configuration not stated), the half-maximal inhibitory concentration (IC50) is greater than 46 µM.
The compound `F\C1=C\N(C(=O)NC1=O)[C@@H]2O[C@H](C)[C@@H](O)[C@H]2O` came in with an IC50 greater than 46 µM.
As for `O=C(OCc1ccccc1)c1ccc(O)cc1`, the figure is greater than 46 µM.
`COC1=C(OC)C(=O)C(C/C=C(\C)CC/C=C(\C)CC/C=C(\C)CC/C=C(\C)CC/C=C(\C)CC/C=C(\C)CC/C=C(\C)CC/C=C(\C)CC/C=C(\C)CCC=C(C)C)=C(C)C1=O` gave a half-inhibitory concentration (IC50) greater than 46 µM.
As for `C[C@@H]1C[C@H]2[C@@H]3C[C@H](F)C4=CC(=O)C=C[C@]4(C)[C@@]3(Cl)[C@@H](O)C[C@]2(C)[C@H]1C(=O)COC(=O)C(C)(C)C`, the figure is greater than 46 µM; as for `C=1(C(\C(C(=O)OC)=C(/NC=1C)C)c3c2c(non2)ccc3)C(OC(C)C)=O` (configuration not stated), greater than 46 µM.
With `CCOc1ccc2c(c1)C(C)=CC(C)(C)N2`, the 50% inhibitory concentration (IC50) was greater than 46 µM.
On to `CCCc1nc(C(C)(C)O)c(C(=O)OCc2oc(=O)oc2C)n1Cc1ccc(-c2ccccc2-c2nnn[nH]2)cc1`, for which the IC50 was greater than 46 µM.
The value for `Oc1cc(Cl)ccc1Oc1ccc(Cl)cc1Cl` was greater than 46 µM.
Compound `Cl.N[C@H]1C(O)O[C@H](CO)[C@@H](O)[C@@H]1O` (some centres not stated) had a half-maximal inhibitory concentration (IC50) greater than 46 µM.
As to `C[N+]1(CCC(C(N)=O)(c2ccccc2)c2ccccc2)CCCCC1.[Br-]`, the IC50 is greater than 46 µM.
The value for `c1ccc2sc(SN3CCOCC3)nc2c1` was greater than 46 µM.
As for `O=S([C@](CN1C=CN=N1)(C)[C@H]([C@]([O-])=O)N2C3=O)([C@@]([H])2C3)=O.[Na+]`, the figure is greater than 46 µM.
The value for `CCCCCCCCCC(CC)c1ccc(S(=O)(=O)[O-])cc1.[Na+]` (configuration not stated) was greater than 46 µM.
In turn, `CC(C)CCC[C@@H](C)[C@H]1CC[C@H]2[C@@H]3CC[C@@H]4C[C@H](O)CC[C@]4(C)[C@H]3CC[C@]12C` registered an IC50 greater than 46 µM.
As for `CCN(CCCCOC(=O)c1ccc(OC)c(OC)c1)C(C)Cc1ccc(OC)cc1.Cl` (configuration not stated), the figure is greater than 46 µM; as for `CN/C(=N\C#N)NCCSCc1csc(N=C(N)N)n1`, greater than 46 µM.
As for `O[C@H]1[C@H]2[C@H](O)CCCN2C[C@H]1O`, the figure is greater than 46 µM.
As for `O.O.Oc1cc(O)cc(O)c1`, the figure is greater than 46 µM; as for `CC[NH+](CC)CCc1nc(-c2ccccc2)no1.O=C([O-])CC(O)(CC(=O)O)C(=O)O`, greater than 46 µM; as for `C[C@H]1O[C@H]1P(=O)([O-])[O-].[Ca+2]`, greater than 46 µM.
Take `O=C(O)CCCC/C=C(\c1ccccc1)c1cccnc1`: the half-maximal inhibitory concentration (IC50) was greater than 46 µM.
As for `O=C(Nc1ccc(O)cc1)c1ccccc1O`, the figure is greater than 46 µM; as for `O.O=C(/C=C/C(O)c1ccc(Cl)cc1)[O][Na]` (configuration not stated), greater than 46 µM; as for `O=C(CC)O[C@@]1([C@@]2=CC=CC=C2)[C@H](C)CN(C)CC1`, greater than 46 µM.
As for `Cc1cccc(C)c1NC(=O)C(C)N.Cl` (configuration not stated), the figure is greater than 46 µM.
The compound `C[Se]CC[C@H](N)C(=O)O` displayed an IC50 greater than 46 µM.
As for `CC(C)(C(=O)c1cccnc1)c1cccnc1`, the figure is greater than 46 µM; as for `O=S(C1=CC=CC2=C1NC[C@H](C)C2)(N[C@@H](CCCNC(N)=N)C(N3[C@@H]([C@](O)=O)C[C@H](C)CC3)=O)=O`, greater than 46 µM.
As for `COc1ccc(C(=O)c2ccccc2)c(O)c1`, the figure is greater than 46 µM.
The value for `O=C1NN=C(C2=CC=C(C=C2)N/N=C(C#N)/C#N)[C@@H](C1)C` was greater than 46 µM; that for `CN1c2c(O)nc(N)nc2NCC1CNc1ccc(C(=O)NC(CCC(=O)[O-])C(=O)[O-])cc1.[Na+].[Na+]` (configuration not stated) was greater than 46 µM; that for `O=C1c2ccccc2-c2n[nH]c3cccc1c23` was greater than 46 µM.
For the compound `Cc1nc(NS(=O)(=O)c2ccc(N)cc2)nc(C)c1Br`, the 50% inhibitory concentration (IC50) was greater than 46 µM.
As for `CC1=CCC(C(C)(C)O)CC1` (configuration not stated), the figure is greater than 46 µM.
As for `CCCCC/C=C\C/C=C\C/C=C\CCCCC(=O)O`, the figure is greater than 46 µM.
As for `CCC1(C2=NCCN2)Cc2ccccc2O1` (configuration not stated), the figure is greater than 46 µM; as for `CC(=O)Oc1ccc(C(=C2CCCCC2)c2ccc(OC(C)=O)cc2)cc1`, greater than 46 µM; as for `Cc1cc(C(=O)NNCc2ccccc2)no1`, greater than 46 µM.
The compound `O=C(c1cc2ccccc2o1)N1CCN(Cc2ccccc2)CC1` had an IC50 greater than 46 µM.
As for `O=C([O-])CN(CCN(CC(=O)[O-])CC(=O)[O-])CC(=O)[O-].[Ca+2].[Na+].[Na+]`, the figure is greater than 46 µM; as for `C[C@]12CC[C@H]3[C@@H](CCC4=C(Cl)C(=O)CC[C@@]43C)[C@@H]1CC[C@@H]2O`, greater than 46 µM; as for `O=NN(CCCl)C(=O)NC1CCCCC1`, greater than 46 µM.
As for `CC(C)NCC1CCc2cc(CO)c([N+](=O)[O-])cc2N1` (configuration not stated), the figure is greater than 46 µM; as for `O=C(C=Cc1ccccc1)NCCO`, greater than 46 µM; as for `C=CCN1CC[C@]23c4c5ccc(O)c4O[C@H]2[C@@H](O)C=C[C@H]3[C@H]1C5.Cl`, greater than 46 µM.
As for `COc1ccccc1OCC(O)CO` (configuration not stated), the figure is greater than 46 µM.
Compound `O=C(O)CCNC(=O)c1ccc(/N=N/c2ccc(O)c(C(=O)O)c2)cc1` gave an IC50 greater than 46 µM.
As for `CCCn1cnc2c1c(=O)n(CCCCC(C)=O)c(=O)n2C`, the figure is greater than 46 µM.
The value for `CC(=O)O[C@H]1C[C@@]2(C)[C@@H](C[C@@H](O)[C@H]3[C@@]4(C)CC[C@@H](O)[C@@H](C)[C@@H]4CC[C@@]32C)/C1=C(\CCC=C(C)C)C(=O)[O-].[Na+]` was greater than 46 µM; that for `CS(=O)(=O)O.CS(=O)(=O)O.N=C(N)c1ccc(/C=C/c2ccc(C(=N)N)cc2O)cc1` was greater than 46 µM; that for `NCCCNCCSP(=O)(O)O` was greater than 46 µM.
The value for `C[C@@H]1[C@H](O)[C@@H](C)/C=C/C=C/C=C/C=C/C=C/C=C/C=C/[C@H](O[C@@H]2O[C@H](C)[C@@H](O)[C@H](N)[C@@H]2O)C[C@@H]2O[C@](O)(C[C@@H](O)C[C@@H](O)[C@H](O)CC[C@@H](O)C[C@@H](O)CC(=O)O[C@H]1C)C[C@H](O)[C@H]2C(=O)O` was greater than 46 µM; that for `CC(C)CCC[C@@H](C)[C@H]1CC[C@H]2[C@@H]3CC=C4C[C@@H](O)CC[C@]4(C)[C@H]3CC[C@]12C` was greater than 46 µM.
The compound `Cc1cnc(NC(=O)C2=C(O)c3ccccc3S(=O)(=O)N2C)s1` displayed a half-inhibitory concentration (IC50) greater than 46 µM.
The value for `C[C@]12C[C@H](O)[C@H]3[C@@H](CCC4=CC(=O)CC[C@@]43C)[C@@H]1CC[C@H]2C(=O)CO` was greater than 46 µM; that for `C[C@@H]1O[C@@H](OC[C@H]2O[C@@H](Oc3c(-c4ccc(O)c(O)c4)oc4cc(O)cc(O)c4c3=O)[C@H](O)[C@@H](O)[C@@H]2O)[C@H](O)[C@H](O)[C@H]1O` was greater than 46 µM; that for `Cc1ccc(S(=O)(=O)NC(=O)NN2CC3CCCC3C2)cc1` (configuration not stated) was greater than 46 µM.
Consider `CCCCOC(=O)c1ccc(N)cc1`, for which the 50% inhibitory concentration (IC50) is greater than 46 µM.
Turning to `C=Cc1ccc(S(=O)(=O)[O-])cc1.[Na+]`, the half-inhibitory concentration (IC50) was greater than 46 µM.
Regarding `CC(=C\c1ccccc1)/C=C1/SC(=S)N(CC(=O)O)C1=O`, the 50% inhibitory concentration (IC50) is greater than 46 µM.
For `C=C1c2c(Cl)ccc(O)c2C(=O)C2=C(O)[C@]3(O)C(=O)C(C(N)=O)=C(O)[C@@H](N(C)C)[C@@H]3[C@@H](O)[C@H]12.O=C(O)c1cc(S(=O)(=O)O)ccc1O`, the IC50 was greater than 46 µM.
In turn, `NC(CSCC(=O)O)C(=O)O` (configuration not stated) displayed an IC50 greater than 46 µM.
The value for `CNC[C@H](O)c1cccc(O)c1.Cl` was greater than 46 µM; that for `O=C(O)c1cccnc1` was greater than 46 µM.
The value for `NS(=O)(=O)c1ccc(C(=O)O)cc1` was greater than 46 µM.
The value for `CC(=O)Nc1c(I)c(C(=O)N[C@H]2C(O)O[C@H](CO)[C@@H](O)[C@@H]2O)c(I)c(N(C)C(C)=O)c1I` (some centres not stated) was greater than 46 µM; that for `CO/N=C(\C(=O)N[C@@H]1C(=O)N2C(C(=O)O)=C(Cn3ccc(=N)n3CCO)CS[C@H]12)c1csc(N)n1.O=S(=O)(O)O` was greater than 46 µM; that for `ClC4=C(Cl)[C@]5(Cl)[C@@]2([H])[C@]([C@](Cl)4[C@](Cl)5Cl)([H])[C@H]3[C@@H]1O[C@@H]1[C@@H]2C3` was greater than 46 µM.
Take `CC1=CCC2CC1C2(C)C` (configuration not stated): the concentration for half-maximal inhibition (IC50) is greater than 46 µM.
`Nc1nc(O)c(-c2ccccc2)o1` came in with an IC50 greater than 46 µM.
The compound `COc1ccc2c3c1O[C@H]1C(=O)CC[C@H]4[C@@H](C2)N(C)CC[C@]314.COc1ccc2c3c1O[C@H]1C(=O)CC[C@H]4[C@@H](C2)N(C)CC[C@]314.O=P(O)(O)O.O=P(O)(O)O.O=P(O)(O)O` registered a 50% inhibitory concentration (IC50) greater than 46 µM.
As for `COc1cc2c(cc1OC)C1CC(=O)C(CC(C)C)CN1CC2` (configuration not stated), the figure is greater than 46 µM.

The record behind these values is the supplement of paper PMC3493320.
